Measurements: PubChem BioAssay AID1918936 (Molecular Pharmacology Branch, DTP, NCI, 2023)
Values joined by “and” are separate entries in the source; they are usually repeats but may differ in a detail not shown here. Equal values may be shown once.

Tested on: 349418-098-R-PDC complex spheroid viability
Experiment: Anticancer human tumor 349418-098-R-PDC patient-derived lung adenocarcinoma cell line growth inhibition
Conditions: for viability, T/C: stronger effect = lower value
Procedure, shortened: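 Drug combinations with the LSD1 inhibitor iadademstat tested on tumor cells co-cultured as spheroids with endothelial cells and mesenchymal stem cells. Concentrations descended in half-log increments from clinical Cmax or 10 microM.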

[1] = curve of first compound, second compound 0.1 µM
[2] = curve of first compound, second compound 0.316 µM
[3] = curve of first compound, second compound 1 µM
[4] = curve of first compound, second compound 3.16 µM
[5] = curve of first compound, second compound 10 µM
[6] = second compound 0.1 µM, first compound 0.000316 µM
[7] = second compound 0.1 µM, first compound 0.001 µM
[8] = second compound 0.1 µM, first compound 0.00316 µM
[9] = second compound 0.1 µM, first compound 0.01 µM
[10] = second compound 0.1 µM, first compound 0.0316 µM
[11] = second compound 0.1 µM, first compound 0.1 µM
[12] = second compound 0.316 µM, first compound 0.000316 µM
[13] = second compound 0.316 µM, first compound 0.001 µM
[14] = second compound 0.316 µM, first compound 0.00316 µM
[15] = second compound 0.316 µM, first compound 0.01 µM
[16] = second compound 0.316 µM, first compound 0.0316 µM
[17] = second compound 0.316 µM, first compound 0.1 µM
[18] = second compound 1 µM, first compound 0.000316 µM
[19] = second compound 1 µM, first compound 0.001 µM
[20] = second compound 1 µM, first compound 0.00316 µM
[21] = second compound 1 µM, first compound 0.01 µM
[22] = second compound 1 µM, first compound 0.0316 µM
[23] = second compound 1 µM, first compound 0.1 µM
[24] = second compound 3.16 µM, first compound 0.000316 µM
[25] = second compound 3.16 µM, first compound 0.001 µM
[26] = second compound 3.16 µM, first compound 0.00316 µM
[27] = second compound 3.16 µM, first compound 0.01 µM
[28] = second compound 3.16 µM, first compound 0.0316 µM
[29] = second compound 3.16 µM, first compound 0.1 µM
[30] = second compound 10 µM, first compound 0.000316 µM
[31] = second compound 10 µM, first compound 0.001 µM
[32] = second compound 10 µM, first compound 0.00316 µM
[33] = second compound 10 µM, first compound 0.01 µM
[34] = second compound 10 µM, first compound 0.0316 µM
[35] = second compound 10 µM, first compound 0.1 µM
[36] = second compound 0.1 µM, first compound 0.316 µM
[37] = second compound 0.1 µM, first compound 1 µM
[38] = second compound 0.316 µM, first compound 0.316 µM
[39] = second compound 0.316 µM, first compound 1 µM
[40] = second compound 1 µM, first compound 0.316 µM
[41] = second compound 1 µM, first compound 1 µM
[42] = second compound 3.16 µM, first compound 0.316 µM
[43] = second compound 3.16 µM, first compound 1 µM
[44] = second compound 10 µM, first compound 0.316 µM
[45] = second compound 10 µM, first compound 1 µM
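Note: spheroids exposed to agents for seven days before readout.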
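Throughout, for viability, T/C: 100% = DMSO vehicle control wells.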

SMILES: CC[C@@]1(O)C(=O)OCc2c1cc1n(c2=O)Cc2cc3c(CN(C)C)c(O)ccc3nc2-1 + NC1CCC(NC2CC2c2ccccc2)CC1
- IC50 [1]: 2.04 nM
- IC50 [2]: 1.94 nM
- IC50 [3]: 2.12 nM
- IC50 [4]: 2.23 nM
- IC50 [5]: 1.87 nM
- viability, T/C [6]: 98.8%
- viability, T/C [7]: 86.5%
- viability, T/C [8]: 27.2%
- viability, T/C [9]: 8.74%
- viability, T/C [10]: 4.98%
- viability, T/C [11]: 3.65%
- viability, T/C [12]: 113%
- viability, T/C [13]: 78.6%
- viability, T/C [14]: 28.8%
- viability, T/C [15]: 8.08%
- viability, T/C [16]: 5.09%
- viability, T/C [17]: 3.1%
- viability, T/C [18]: 98.9%
- viability, T/C [19]: 84.8%
- viability, T/C [20]: 31.4%
- viability, T/C [21]: 8.25%
- viability, T/C [22]: 5.11%
- viability, T/C [23]: 2.94%
- viability, T/C [24]: 91.6%
- viability, T/C [25]: 83.5%
- viability, T/C [26]: 35.2%
- viability, T/C [27]: 9.52%
- viability, T/C [28]: 5.25%
- viability, T/C [29]: 3.35%
- viability, T/C [30]: 95%
- viability, T/C [31]: 71%
- viability, T/C [32]: 31.8%
- viability, T/C [33]: 12%
- viability, T/C [34]: 4.67%
- viability, T/C [35]: 3.15%

SMILES: CC1COCCN1c1cc(-c2ccnn2C)c2ccnc(-c3ccn[nH]3)c2n1 (centres undefined)
- viability, T/C (compound 0.00316 µM): 104% and 25.4%
- viability, T/C (compound 0.01 µM): 61.4% and 14.9%
- viability, T/C (compound 0.0316 µM): 14.5% and 8.01%
- viability, T/C (compound 0.1 µM): 8.8% and 6.27%
- viability, T/C (compound 0.316 µM): 7.72% and 5.55%
- viability, T/C (compound 1 µM): 5.78% and 4.24%
- IC50 (curve of compound): 13.2 nM and < 3.16 nM

SMILES: O=C(c1cc(Cc2n[nH]c(=O)c3ccccc23)ccc1F)N1CCN(C(=O)C2CC2)CC1 + NC1CC1c1ccc(-c2cccc(O)c2)cc1
- IC50 [1]: 8910 nM
- IC50 [2]: 8220 nM
- IC50 [3]: 8040 nM
- IC50 [4]: > 10000 nM
- IC50 [5]: 3190 nM
- viability, T/C [10]: 106%
- viability, T/C [11]: 108%
- viability, T/C [36]: 99.3%
- viability, T/C [37]: 99.3%
- viability, T/C (second compound 0.1 µM, first compound 3.16 µM): 86%
- viability, T/C (second compound 0.1 µM, first compound 10 µM): 45.5%
- viability, T/C [16]: 111%
- viability, T/C [17]: 105%
- viability, T/C [38]: 103%
- viability, T/C [39]: 98.5%
- viability, T/C (second compound 0.316 µM, first compound 3.16 µM): 77.6%
- viability, T/C (second compound 0.316 µM, first compound 10 µM): 43.9%
- viability, T/C [22]: 116%
- viability, T/C [23]: 106%
- viability, T/C [40]: 105%
- viability, T/C [41]: 104%
- viability, T/C (second compound 1 µM, first compound 3.16 µM): 69.1%
- viability, T/C (second compound 1 µM, first compound 10 µM): 45.5%
- viability, T/C [28]: 116%
- viability, T/C [29]: 111%
- viability, T/C [42]: 101%
- viability, T/C [43]: 105%
- viability, T/C (second compound 3.16 µM, first compound 3.16 µM): 75.5%
- viability, T/C (second compound 3.16 µM, first compound 10 µM): 52.3%
- viability, T/C [34]: 97.1%
- viability, T/C [35]: 90.3%
- viability, T/C [44]: 75.2%
- viability, T/C [45]: 67%
- viability, T/C (second compound 10 µM, first compound 3.16 µM): 49.9%
- viability, T/C (second compound 10 µM, first compound 10 µM): 33.6%

SMILES: CC(C)CC(NC(=O)C(Cc1ccccc1)NC(=O)c1cnccn1)B(O)O (centres undefined)
- viability, T/C (compound 0.000316 µM): 9.44% and 1.92%
- viability, T/C (compound 0.001 µM): 1.9% and 1.46%
- viability, T/C (compound 0.00316 µM): 1.14% and 0.84%
- viability, T/C (compound 0.01 µM): 0.78% and 0.64%
- viability, T/C (compound 0.0316 µM): 0.63% and 0.42%
- viability, T/C (compound 0.1 µM): 0.67% and 0.41%
- IC50 (curve of compound): < 0.316 nM

SMILES: CC[C@@]1(O)C(=O)OCc2c1cc1n(c2=O)Cc2cc3c(CN(C)C)c(O)ccc3nc2-1 + NC1CC1c1ccc(-c2cccc(O)c2)cc1
- IC50 [1]: 4.97 nM
- IC50 [2]: 4.86 nM
- IC50 [3]: 4.78 nM
- IC50 [4]: 4.69 nM
- IC50 [5]: 3.8 nM
- viability, T/C [6]: 115%
- viability, T/C [7]: 108%
- viability, T/C [8]: 74.8%
- viability, T/C [9]: 11.4%
- viability, T/C [10]: 5.55%
- viability, T/C [11]: 3.01%
- viability, T/C [12]: 120%
- viability, T/C [13]: 116%
- viability, T/C [14]: 74%
- viability, T/C [15]: 9.75%
- viability, T/C [16]: 4.91%
- viability, T/C [17]: 2.78%
- viability, T/C [18]: 118%
- viability, T/C [19]: 116%
- viability, T/C [20]: 72.4%
- viability, T/C [21]: 10.1%
- viability, T/C [22]: 5.15%
- viability, T/C [23]: 2.6%
- viability, T/C [24]: 122%
- viability, T/C [25]: 112%
- viability, T/C [26]: 70.8%
- viability, T/C [27]: 10.1%
- viability, T/C [28]: 5.39%
- viability, T/C [29]: 2.8%
- viability, T/C [30]: 91.9%
- viability, T/C [31]: 90.1%
- viability, T/C [32]: 57.8%
- viability, T/C [33]: 8.84%
- viability, T/C [34]: 5.04%
- viability, T/C [35]: 2.95%

SMILES: O=C(C=Cn1cnc(-c2cc(C(F)(F)F)cc(C(F)(F)F)c2)n1)NNc1cnccn1 + NC1CC1c1ccc(-c2cccc(O)c2)cc1
- IC50 [1]: < 3.16 nM
- IC50 [2]: < 3.16 nM
- IC50 [3]: < 3.16 nM
- IC50 [4]: < 3.16 nM
- IC50 [5]: < 3.16 nM
- viability, T/C [8]: 21.7%
- viability, T/C [9]: 13.6%
- viability, T/C [10]: 8.69%
- viability, T/C [11]: 4.58%
- viability, T/C [36]: 3.21%
- viability, T/C [37]: 2.82%
- viability, T/C [14]: 23%
- viability, T/C [15]: 13.6%
- viability, T/C [16]: 7.36%
- viability, T/C [17]: 4.45%
- viability, T/C [38]: 3.04%
- viability, T/C [39]: 2.89%
- viability, T/C [20]: 21.3%
- viability, T/C [21]: 11.7%
- viability, T/C [22]: 7.13%
- viability, T/C [23]: 3.94%
- viability, T/C [40]: 2.88%
- viability, T/C [41]: 2.59%
- viability, T/C [26]: 22.3%
- viability, T/C [27]: 16.3%
- viability, T/C [28]: 7.41%
- viability, T/C [29]: 5%
- viability, T/C [42]: 3.23%
- viability, T/C [43]: 2.75%
- viability, T/C [32]: 11.5%
- viability, T/C [33]: 11.2%
- viability, T/C [34]: 7.71%
- viability, T/C [35]: 5.06%
- viability, T/C [44]: 2.95%
- viability, T/C [45]: 2.62%
